Tests used:
[1] = system: pSTAT5 in CD3+ cells (IFN-α stimulated); assay: Inhibition of IFN-α-induced pSTAT5 expression in CD3+ cells of human whole blood, FACS detection; type: cell-based; details: 0.25 h, fresh human whole blood, IFN-α 20 ng/ml, 15 minutes
Procedure: The Inhibitory Effect of Compounds on the expression of pSTAT5 in CD3+ Cells Using FACS Detection • 1. Experimental Materials and instruments: • 1.1. Experimental reagents • DMSO, Sigma, Cat #D2650-100 ml, stored at room temperature. • Perm buffer III, BD Biosciences, Cat #558050, stored at 4° C. • Lyse/Fix buffer, BD Biosciences, Cat #558049, stored at room temperature. • EDTA, Invitrogen, Cat #15575-038, stored at room temperature. • PBS, Hyclone, Cat #SH30256.01, stored at 4° C. • PE Mouse Anti-Human CD3, BD Biosciences, Cat #555333, stored at 4° C. • Mouse anti-human Phospho-STATS (pY694) (Alexa Fluor® 647 Conjugate), BD Biosciences, Cat #562076, stored at 4° C. • IFN-α, Biolegend, Cat #592702 • 1.2 Experimental consumables • Microplate, 96 Well, PP, v-bottom, Greiner, Cat #GN651201-100EA. • 5 ml polystyrene round bottom tube, FALCON, Cat #04318011. • 96 square well storage plate, Thermo, Cat #AB-0661. • 96-well plate, Corning, Cat #3599. • 1.3 Instruments • CO2 cell incubator: MCO-15AC (Thermo) • Pipette: 0.2-10 μL, 20-200 μL, 200-1000 μL (Thermo) • Multichannel pipette: 0.2-10 μL, 5-50 μL, 20-300 μL (Raining) • Centrifuge: Thermo Centrifuge ST 40R; Thermo LEGEND Micro 21R • Water system: Millipore Milli-Q Reference system • Freezer: Haier ultralow temperature freezer • Haier 4 centigrade refrigerator • Haier −20 centigrade freezer • Vortex: EARTH REQUIRED • Plate Shaker: QI LIN BEI ER; MH-2 • Flow Cytometer: BD FACSVerse™ Flow Cytometer • 2 Experimental method: • 2.1 Compound Dilution • 1) On the day of experiment, the compound was prepared into a 10 mM solution with DMSO, diluted to 1.5 mM with DMSO, and then diluted to 8 gradient concentrations with 3-fold dilutions. • 2) 5 μl of diluted compound was transferred into 120 ul of DPBS solution with 0.1% BSA. • 3) Positive and negative control groups were set up, with an addition of 0.5% DMSO to the positive and negative control groups. • 2.2 Experimental procedure • 1) 67.5 ul of fresh human whole blood was added to the 96-well cell culture plate. • 2) 3.5 ul of diluted compound was added and mixed well. • 3) Incubating in a 37° C. incubator for 60 minutes. • 4) IFN-α was diluted in DPBS containing 0.1% BSA to 400 ng/ml, and PE anti-hCD3 antibody was diluted in DPBS containing 0.1% BSA to 5-fold. After the above 60-minute incubation, diluted PE anti-hCD3 antibody was added at 5 ul per well and diluted IFN-α was added at 4 ul per well, i.e., the final concentration of IFN-α per well was 20 ng/ml. • 5) Incubating in a 37° C. incubator for 15 minutes. • 6) All cells were transferred to a 96-well deep well plate and 1 ml of 37° C. preheated lysis/fix buffer was added. • 7) Incubating at 37° C. in dark for 10 minutes. • 8) Centrifuging at 600 g for 5 minutes and then the supernatant was discarded. Washing by adding 1 ml PBS for twice and centrifuging. • 9) 1 ml of Perm buffer III was added to cell precipitation. • 10) Incubating at 37° C. in dark for 30 minutes. • 11) Centrifuging at 600 g for 5 minutes and then the supernatant was discarded. Washing by adding 1 ml PBS for twice and centrifuging. • 12) APC anti-human pSTAT5 antibody was diluted in staining buffer, and then added to cell wells at 100 ul per well and mixed well. • 13) Incubating at room temperature for 40 minutes. • 14) Staining buffer was added and washed twice, 1 ml for each well, centrifuging at 600 g for 5 minutes. • 15) After discarding the supernatant, the cell precipitation was resuspended in 300 ul of staining buffer. • 16) Sample loading and analysing in a flow cytometer.

TYK2(JH1) = molecular target: T1, TYK2(JH1) (Homo sapiens, UniProt P29597); assay: Kinase (JH1) experiment, TYK2(JH1); type: biochemical
T1 construct: TYK2-JH1 (the kinase domain of TYK2)
T1 sequence (P29597 897-1176 limits assumed): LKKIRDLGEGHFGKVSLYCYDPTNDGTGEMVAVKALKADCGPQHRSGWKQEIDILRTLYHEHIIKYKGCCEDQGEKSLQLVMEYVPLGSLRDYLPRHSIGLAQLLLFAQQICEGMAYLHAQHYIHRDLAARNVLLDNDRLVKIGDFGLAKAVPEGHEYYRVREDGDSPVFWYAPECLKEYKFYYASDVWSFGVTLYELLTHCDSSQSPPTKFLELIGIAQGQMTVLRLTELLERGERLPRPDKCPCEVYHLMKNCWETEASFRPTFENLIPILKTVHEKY
Procedure: (§1) • 1. Experimental method • 1.1. Pseudokinase (JH2) experiment operation was as follows: • 1.1.1. The compound was dissolved with DMSO to a storage concentration of 10 mM. • 1.1.2. A compound concentration of 200 times the final concentration was prepared in a compound dilution plate, which was diluted from the highest concentration point with a total of 4 concentration points using the 27 times dilution method, and then transferred to the Echo plate. • 1.1.3. The compound was flushed from the Echo plate to the 384 well experimental plate using an Echo instrument, thereby obtaining a total of 11 concentration points of the compound with three-fold dilution matrix. • 1.1.4. 5 ul of TYK2-JH2 or JAK1-JH2 pseudokinase, 3 times the final concentration, was added to the 384-well experimental plate. • 1.1.5. 5 ul of Tb, 3 times the final concentration, was added to the 384-well experimental plate. • 1.1.6. 5 ul of Tracer, 3 times the final concentration, was added to the 384-well experimental plate. • 1.1.7. Centrifuging for 30 seconds and incubating at room temperature for 60 minutes. • 1.1.8. The fluorescence ratio of 520 nm to 495 nm was read using Envision Microplate Reader (PerkinElmer). • 1.2. Kinase (JH1) experiment operation was as follows: • 1.2.1. […] The fluorescence ratio at 665 nm and 615 nm were read using Envision Microplate Reader (PerkinElmer). • 1.3. […]

TYK2(JH2) = TYK2(JH2) (Homo sapiens, UniProt P29597); assay: Pseudokinase (JH2) experiment with Tb/Tracer, TYK2-JH2; type: binding
Sequence of TYK2(JH2) (P29597 589-875 limits assumed): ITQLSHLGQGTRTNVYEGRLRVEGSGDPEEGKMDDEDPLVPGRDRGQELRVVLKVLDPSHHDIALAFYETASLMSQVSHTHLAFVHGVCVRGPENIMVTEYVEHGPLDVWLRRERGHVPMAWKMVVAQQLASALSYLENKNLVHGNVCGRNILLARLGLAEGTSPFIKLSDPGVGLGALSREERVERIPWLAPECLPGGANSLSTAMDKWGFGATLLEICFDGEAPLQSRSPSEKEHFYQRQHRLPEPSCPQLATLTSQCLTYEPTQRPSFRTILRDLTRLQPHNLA
Procedure: as §1

JAK1(JH2) = JAK1(JH2) (Homo sapiens, UniProt P23458); assay: Pseudokinase (JH2) experiment with Tb/Tracer, JAK1-JH2; type: binding
Sequence of JAK1(JH2) (P23458 583-855 limits assumed): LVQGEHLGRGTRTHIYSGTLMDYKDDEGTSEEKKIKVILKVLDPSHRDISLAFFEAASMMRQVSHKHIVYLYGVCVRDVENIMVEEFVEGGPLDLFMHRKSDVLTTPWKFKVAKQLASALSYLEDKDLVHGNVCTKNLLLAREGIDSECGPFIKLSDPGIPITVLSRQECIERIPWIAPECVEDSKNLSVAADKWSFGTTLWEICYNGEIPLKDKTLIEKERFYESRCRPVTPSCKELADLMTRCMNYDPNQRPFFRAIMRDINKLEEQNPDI
Procedure: as §1

JAK1(JH1) = molecular target: T2, JAK1(JH1) (Homo sapiens, UniProt P23458); assay: Kinase (JH1) experiment, JAK1(JH1); type: biochemical
T2 construct: JAK1-JH1 (the kinase domain of JAK1)
T2 sequence (P23458 875-1153 limits assumed): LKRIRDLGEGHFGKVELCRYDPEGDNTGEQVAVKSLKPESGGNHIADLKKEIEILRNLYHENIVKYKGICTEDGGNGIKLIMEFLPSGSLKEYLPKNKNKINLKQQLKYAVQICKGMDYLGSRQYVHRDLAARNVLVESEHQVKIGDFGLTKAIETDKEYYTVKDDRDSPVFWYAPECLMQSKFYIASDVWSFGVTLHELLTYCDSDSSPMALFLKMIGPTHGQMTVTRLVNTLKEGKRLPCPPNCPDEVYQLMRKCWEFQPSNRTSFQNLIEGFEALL
Procedure: as §1

JAK3(JH1) = molecular target: T3, JAK3(JH1) (Homo sapiens, UniProt P52333); assay: Kinase (JH1) experiment, JAK3(JH1); type: biochemical
T3 construct: JAK3-JH1 (the kinase domain of JAK3)
T3 sequence (P52333 822-1111 limits assumed): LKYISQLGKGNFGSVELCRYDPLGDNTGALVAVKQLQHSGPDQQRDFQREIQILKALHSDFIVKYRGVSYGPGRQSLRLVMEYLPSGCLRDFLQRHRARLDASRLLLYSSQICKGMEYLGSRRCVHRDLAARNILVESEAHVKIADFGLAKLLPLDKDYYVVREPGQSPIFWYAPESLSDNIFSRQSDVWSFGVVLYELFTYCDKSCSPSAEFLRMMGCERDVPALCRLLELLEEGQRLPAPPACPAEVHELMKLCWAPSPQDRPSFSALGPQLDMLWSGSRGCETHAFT
Procedure: as §1

JAK2(JH1) = molecular target: T4, JAK2(JH1) (Homo sapiens, UniProt O60674); assay: Kinase (JH1) experiment, JAK2(JH1); type: biochemical
T4 construct: JAK2-JH1 (the kinase domain of JAK2)
T4 sequence (O60674 849-1124 limits assumed): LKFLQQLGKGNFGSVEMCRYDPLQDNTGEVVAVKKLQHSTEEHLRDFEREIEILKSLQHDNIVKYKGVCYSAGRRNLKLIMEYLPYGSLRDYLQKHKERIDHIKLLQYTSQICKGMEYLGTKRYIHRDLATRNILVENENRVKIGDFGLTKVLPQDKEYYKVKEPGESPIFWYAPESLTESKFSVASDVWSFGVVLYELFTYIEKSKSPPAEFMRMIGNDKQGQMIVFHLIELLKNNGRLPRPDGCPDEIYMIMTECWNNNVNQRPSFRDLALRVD
Procedure: as §1

[2] = selectivity ratio versus TYK2-JH2

[2H]C([2H])([2H])NC(=O)c1nnc(NC(=O)C2CC2)cc1Nc1ccccc1S(=O)(=O)C1CC1 [Compound 1]
IC50 [1]: 2800 nM

[2H]C([2H])([2H])NC(=O)c1nnc(NC(=O)C2CC23CC3)cc1Nc1nccnc1S(=O)(=O)C1CC1 (stereo not drawn) [Compound 5]
IC50 [1]: 2110 nM

[2H]C([2H])([2H])NC(=O)c1nnc(NC(=O)C2CC2)cc1Nc1ncccc1S(=O)(=O)C1CC1 [Compound 3]
IC50 (TYK2(JH1); kinase domain): 4310 nM | IC50Other/IC50TYK2-JH2, TYK2(JH1) (TYK2(JH1); [2]): 13480 | IC50 (TYK2(JH2); pseudokinase domain): 0.32 nM | IC50Other/IC50TYK2-JH2, TYK2(JH2) (TYK2(JH2); reference ratio, TYK2-JH2 versus itself): 1 | IC50 (JAK1(JH2); pseudokinase domain): 53.1 nM | IC50Other/IC50TYK2-JH2, JAK1(JH2) (JAK1(JH2); [2]): 166 | IC50 (JAK1(JH1); kinase domain): 3190 nM | IC50Other/IC50TYK2-JH2, JAK1(JH1) (JAK1(JH1); [2]): 9955 | IC50 (JAK3(JH1); kinase domain): 2380 nM | IC50Other/IC50TYK2-JH2, JAK3(JH1) (JAK3(JH1); [2]): 7432 | IC50 (JAK2(JH1); kinase domain): 2810 nM | IC50Other/IC50TYK2-JH2, JAK2(JH1) (JAK2(JH1); [2]): 8790 | IC50 [1]: 64 nM

[2H]C([2H])([2H])NC(=O)c1nnc(NC(=O)C2CC23CC3)cc1Nc1ncccc1S(=O)(=O)C1CC1 (stereo not drawn) [Compound 4]
IC50 [1]: 168 nM

[2H]C([2H])([2H])NC(=O)c1cnc(NC(=O)C2CC2)cc1Nc1ncccc1S(=O)(=O)C1CC1 [Compound 6]
IC50 [1]: 128 nM

[2H]C([2H])([2H])NC(=O)c1nnc(NC(=O)C2CC2)cc1Nc1nccnc1S(=O)(=O)C1CC1 [Compound 2]
IC50 [1]: 867 nM
